The values below come from patent US8883140B2 (Henkel AG & Co. KGaA, priority 2010, dated 2014).

This test has as its system variant F49 of the protease from Bacillus lentus. Briefly: Residual proteolytic activity after storage in liquid washing agent (suc-AAPF-pNA release). To be noted: 13 days at 30° C., based on initial activity of 100%. It is filed as biochemical. The text has this: A liquid washing agent of the following composition served as a baseline washing agent formulation (all indications in percent by weight): 0.3 to 0.5% xanthan, 0.2 to 0.4% antifoaming agent, 6 to 7% glycerol, 0.3 to 0.5% ethanol, 4 to 7% FAEOS (fatty alcohol ether sulfate), 24 to 28% nonionic surfactants, 1 to 2% sodium citrate (dihydrate), 2 to 4% soda, 14 to 16% coconut fatty acids, 0.5% HEDP (1-hydroxyethane-(1,1-diphosphonic acid)), 0 to 0.4% PVP (polyvinylpyrrolidone), 0 to 0.05% optical brightener, 0 to 0.001% dye, remainder demineralized water.
The oligoaminobiphenyl oligocarboxylic acid 3,3-diamino-[1,1-biphenyl]-2,4-dicarboxylic acid was incorporated into this formulation as the component stabilizing the hydrolytic enzyme, as indicated below (see Table 1, indications in this regard in wt %). Comparison formulations that contained either boric acid as an enzyme stabilizer, or no enzyme stabilizer, served as controls. The protease used was variant F49 of the protease from Bacillus lentus in accordance with WO 95/23221 (quantity used: 1 wt % active substance).
After storage, the respective residual proteolytic activity was determined by way of the release of the para-nitroaniline (pNA) chromophore from the suc-L-Ala-L-Ala-L-Pro-L-Phe-p-nitroanilide substrate (suc-AAPF-pNA) (SEQ ID NO. 1). The protease cleaves the substrate and releases pNA. The release of pNA causes an increase in extinction at 410 nm, the time course of which is an indication of enzymatic activity (see Del Mar et al., 1979). Measurement occurred at a temperature of 25° C., at pH 8.6 and at a wavelength of 410 nm. The measurement time was 5 min, with a measurement interval from 20 s to 60 s. The proteolytic activity values obtained are indicated in Table 1 below, based on an initial activity of 100% when storage began.

[1] abbreviates: 1.0 wt % (1%) stabilizer in baseline liquid washing agent.

Take `Nc1cc(-c2cccc(N)c2C(=O)O)ccc1C(=O)O`: the “residual proteolytic activity after storage” value runs as follows: (0.1 wt % stabilizer in baseline liquid washing agent) 30.2%; (0.5 wt % stabilizer in baseline liquid washing agent) 43.5%; under setting [1], 48.0%; (2.0 wt % stabilizer in baseline liquid washing agent) 73.6%.

On to `OB(O)O` [boric acid, reference compound], for which the “residual proteolytic activity after storage” value under setting [1] amounted to 74.9%.
